# Test results published in patent US10730911B2, “Backbone-cyclized peptidomimetics with GLP-1R modulating activity” (POLYPHOR AG, priority 2015, dated 2020).
# Where a SMILES comes first, the peptide text is derived from it. [ ]: non-standard residue; d: D form. The star is where a group is joined. Tyr(Ph) = N[C@@H](Cc1ccc(Oc2ccccc2)cc1)C(=O)O; His(π-Bn) = N[C@@H](Cc1cncn1Cc1ccccc1)C(=O)O; Phe(4-NH2) = Nc1ccc(C[C@H](N)C(=O)O)cc1; 3Pal = N[C@@H](Cc1cccnc1)C(=O)O; Aic = NC1(C(=O)O)Cc2ccccc2C1; Ac6c = NC1(C(=O)O)CCCCC1; Aib = CC(C)(N)C(=O)O; Bn = c1ccc(C*)cc1
# Target: T1, human glucagon-like peptide-1 receptor (GLP-1R) (Homo sapiens, UniProt P43220)
# T1 construct: host or cells: CHO chAMPion cells
# Experiment: Human GLP-1 receptor cell-based assay (flash luminescence, Target Activation phase)
# Conditions: CHO chAMPion cells stably co-expressing human GLP-1R, Photina and cAMP-activated calcium channel; agonist activity; normalization by forskolin at 10 μM; ^a) values from single experiment; read-out: EC50 (μM) Target Activation (TA)
# Source text: CHO chAMPion cells (Axxam SpA; S. Corazza, Assay Drug Dev. Technol. 2009, 7, 304-307) stably co-expressing the human glucagon-like peptide-1 receptor (GLP-1R), the Ca^2+-sensitive photoprotein PHOTINA® (S. Bovolenta et al., J. Biomol. Screen. 2007, 12, 694-704) and a mutated cAMP-activated calcium ion channel (WO2004/083803 A2) were used to monitor GLP-1R signaling after stimulation with an agonist. Activation of the Gas-coupled GPCR GLP-1R was monitored by measuring the flash luminescence of the Ca^2+-sensitive photoprotein as reporter system with FLIPR^TETRA screening instrumentation (Molecular Devices) upgraded with an ICCD Camera (MDC). For data quality check and data analysis the Genedata SCREENER® software was used.
# The reference agonist GLP-1 (glucagon-like peptide-1 amide fragment 7-36) and forskolin were purchased from Sigma (cat. G8147 and F6886, respectively) and prepared according to each ligand's specifications. All handling of ligands were done to ensure proper control throughout the experiments. The steps of the implemented workflow and data analysis are mainly as follows:
# Stably transfected chAMPion cells are seeded 10000 c/w in 384 MTP in Dulbecco's MEM/nutrient mix F12 (BioWhittaker cat. BE04-687F/U1; 500 mL) supplemented with sodium pyruvate (BioWhittaker cat. BE13-115E; 5 mL of 100 mM solution), HEPES (BioWhittaker cat. BE17-737E; 6.5 mL of 1M solution), sodium bicarbonate (BioWhittaker cat. BE17-613E; 25 mL of 7.5% solution), fetal bovine serum (Euroclone cat. ECS 0180L; 50 mL), penicillin-streptomycin (BioWhittaker cat. DE17-602E; 5 mL of 100×solution), 1 mg/mL G418 (selection antibiotic for GLP-1R) and 200 μg/mL hygromycin in 25 μL/well for 24 hours. On the day of the experiment, plates are removed from the incubator, freed from the growth medium, equilibrated at room temperature for 1 h, loaded with 30 μl/well of Ca^2+ free Tyrode's buffer containing 20 μM coelentrazine and 500 μM IBMX, and incubated for 4 hours at room temperature.
# All compounds were tested at 8 concentrations, starting from 50 μM in quadruplicate, intra-plate (dilution step 1:2.15) to determine EC50 values. After incubation, the volume in all the wells is flattened to 20 αL by aspiration with a CYBIO®-VARIO pipettor. First Injection (10 μL of test compounds in Ca^2+ free Tyrode's buffer, DMSO 0.5% v/v and BSA 0.01%; or 10 μL of reference compounds GLP-1 or forskolin in Ca′ free Tyrode's buffer, DMSO 0.5% v/v and BSA 0.01%) is performed by the FLIPR^TETRA and the kinetic response is optionally monitored over a period of 60 seconds. Incubation for 30 minutes at room temperature is followed by the Second Injection (Tyrode's buffer+10 mM CaCl2)) and the kinetic response is monitored over a period of 60 seconds.
# The kinetic response is divided into two distinct phases: monitoring the kinetic response after the First Injection, termed Compound Addition (CA), and monitoring the kinetic response after the Second Injection of 10 mM CaCl2, termed Target Activation (TA). Agonist activity of compounds is evaluated in the Target Activation (TA) phase and it is based on normalization to TA activation by forskolin at 10 μM or GLP-1 at 3.16 nM (EC100)
# A good correlation was observed between EC50, data normalized by forskolin and by GLP-1.
# T1 sequence (P43220 24-463): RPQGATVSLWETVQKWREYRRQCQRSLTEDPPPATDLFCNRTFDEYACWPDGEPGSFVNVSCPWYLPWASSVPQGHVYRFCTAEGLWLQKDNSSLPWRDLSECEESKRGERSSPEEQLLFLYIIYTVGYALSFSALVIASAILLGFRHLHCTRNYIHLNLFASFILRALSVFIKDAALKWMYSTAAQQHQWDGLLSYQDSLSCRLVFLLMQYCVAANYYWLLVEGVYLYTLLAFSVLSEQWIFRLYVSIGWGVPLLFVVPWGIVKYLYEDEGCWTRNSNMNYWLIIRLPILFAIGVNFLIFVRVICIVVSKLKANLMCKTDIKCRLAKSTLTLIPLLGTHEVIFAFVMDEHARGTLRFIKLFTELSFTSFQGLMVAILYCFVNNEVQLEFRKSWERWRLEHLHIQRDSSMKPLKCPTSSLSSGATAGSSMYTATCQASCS
row,EC50 [µM],SMILES
1,0.09 ± 0.05,"C[C@@H]1NC(=O)[C@H](Cc2ccc(O)cc2)NC(=O)[C@H](CCC(N)=O)NC(=O)[C@H](Cc2ccccc2)NC(=O)[C@H](Cc2ccccc2)NC(=O)C2(CCCCC2)NC(=O)[C@H]2CCCN2C(=O)[C@H](Cc2ccc(O)cc2)NC(=O)[C@H](CCC(=O)O)NC(=O)[C@H](Cc2c[nH]c3ccccc23)NC1=O [Ex. 1, cyclo(-Phe-Phe-Gln-Tyr-Ala-Trp-Glu-Tyr-^DPro-Chx-)] (cyclo(FFQYAWEY[dP][Ac6c]))"
2,4.5 ± 2.6,"CC(C)C[C@@H]1NC(=O)[C@H](CC(C)C)NC(=O)[C@H](CCC(=O)O)NC(=O)[C@H](Cc2ccccc2)NC(=O)C2(CCCCC2)NC(=O)[C@H]2CCCN2C(=O)[C@H](Cc2ccccc2)NC(=O)[C@H](CCC(=O)O)NC(=O)[C@H](Cc2c[nH]c3ccccc23)NC(=O)[C@H](C)NC1=O [Ex. 43, cyclo(-Phe-Glu-Leu-Leu-Ala-Trp-Glu-Phe-^DPro-Chx-)] (cyclo(FELLAWEF[dP][Ac6c]))"
3,0.15 ± 0.05,"C[C@@H]1NC(=O)[C@H](Cc2ccc(O)cc2)NC(=O)[C@H](CCC(N)=O)NC(=O)[C@H](Cc2ccc(OCc3ccccc3)cc2)NC(=O)[C@H](Cc2ccccc2)NC(=O)C2(CCCCC2)NC(=O)[C@H]2CCCN2C(=O)[C@H](Cc2ccc(O)cc2)NC(=O)[C@H](CCC(=O)O)NC(=O)[C@H](Cc2c[nH]c3ccccc23)NC1=O [compound 5, cyclo(-Phe-Tyr(Bn)-Gln-Tyr-Ala-Trp-Glu-Tyr-^DPro-Chx-)] (cyclo(FY(Bn)QYAWEY[dP][Ac6c]))"
4,0.57 ± 0.58,"C[C@@H]1NC(=O)[C@H](Cc2ccc(O)cc2)NC(=O)[C@H](CCC(N)=O)NC(=O)[C@H](Cc2ccc(Oc3ccccc3)cc2)NC(=O)[C@H](Cc2ccccc2)NC(=O)C2(CCCCC2)NC(=O)[C@H]2CCCN2C(=O)[C@H](Cc2ccc(O)cc2)NC(=O)[C@H](CCC(=O)O)NC(=O)[C@H](Cc2c[nH]c3ccccc23)NC1=O [compound 7, cyclo(-Phe-Tyr(Ph)-Gln-Tyr-Ala-Trp-Glu-Tyr-^DPro-Chx-)] (cyclo(F[Tyr(Ph)]QYAWEY[dP][Ac6c]))"
5,0.35 ± 0.3,"COc1ccc(C[C@@H]2NC(=O)[C@H](CCC(N)=O)NC(=O)[C@H](Cc3c[nH]c4ccccc34)NC(=O)[C@H](Cc3ccccc3)NC(=O)C3(CCCCC3)NC(=O)[C@H]3CCCN3C(=O)[C@H](Cc3ccc(O)cc3)NC(=O)[C@H](CCC(=O)O)NC(=O)[C@H](Cc3c[nH]c4ccccc34)NC(=O)[C@H](C)NC2=O)cc1 [compound 8, cyclo(-Phe-Trp-Gln-Tyr(Me)-Ala-Trp-Glu-Tyr-^DPro-Chx-)] (cyclo(FWQY(Me)AWEY[dP][Ac6c]))"
6,0.48 ± 0.24,"CC(C)C[C@@H]1NC(=O)[C@H](Cc2c[nH]c3ccccc23)NC(=O)[C@H](Cc2ccccc2)NC(=O)C2(CCCCC2)NC(=O)[C@H]2CCCN2C(=O)[C@H](Cc2ccc(O)cc2)NC(=O)[C@H](CCC(=O)O)NC(=O)[C@H](Cc2c[nH]c3ccccc23)NC(=O)[C@H](C)NC(=O)[C@H](Cc2ccc(O)cc2)NC1=O [compound 12, cyclo(-Phe-Trp-Leu-Tyr-Ala-Trp-Glu-Tyr-^DPro-Chx-)] (cyclo(FWLYAWEY[dP][Ac6c]))"
7,0.66 ± 0.25,"CC(C)C[C@@H]1NC(=O)[C@H](CCC(=O)O)NC(=O)[C@H](Cc2ccccc2)NC(=O)C2(Cc3ccccc3C2)NC(=O)[C@H]2CCCN2C(=O)[C@H](Cc2ccc(O)cc2)NC(=O)[C@H](CCC(=O)O)NC(=O)[C@H](Cc2c[nH]c3ccccc23)NC(=O)[C@H](C)NC(=O)[C@H](Cc2ccc(O)cc2)NC1=O [compound 13, cyclo(-Phe-Glu-Leu-Tyr-Ala-Trp-Glu-Tyr-^DPro-Ind-)] (cyclo(FELYAWEY[dP][Aic]))"

# The next lines start with the molecule.
row,SMILES,EC50 [µM]
1,"C[C@@H]1NC(=O)[C@H](Cc2ccc(O)cc2)NC(=O)[C@H](CCC(N)=O)NC(=O)[C@H](Cc2cncn2Cc2ccccc2)NC(=O)[C@H](Cc2ccccc2)NC(=O)C2(CCCCC2)NC(=O)[C@H]2CCCN2C(=O)[C@H](Cc2ccc(O)cc2)NC(=O)[C@H](CCC(=O)O)NC(=O)[C@H](Cc2c[nH]c3ccccc23)NC1=O [Ex. 4, cyclo(-Phe-His(Bn)-Gln-Tyr-Ala-Trp-Glu-Tyr-^DPro-Chx-)] (cyclo(F[His(π-Bn)]QYAWEY[dP][Ac6c]))",0.09 ± 0.02
2,"C[C@@H]1NC(=O)[C@H](Cc2ccc(O)cc2)NC(=O)[C@H](CCC(N)=O)NC(=O)[C@H](Cc2cccnc2)NC(=O)[C@H](Cc2ccccc2)NC(=O)C2(CCCCC2)NC(=O)[C@H]2CCCN2C(=O)[C@H](Cc2ccc(O)cc2)NC(=O)[C@H](CCC(=O)O)NC(=O)[C@H](Cc2c[nH]c3ccccc23)NC1=O [compound 2, cyclo(-Phe-3Pal-Gln-Tyr-Ala-Trp-Glu-Tyr-^DPro-Chx-)] (cyclo(F[3Pal]QYAWEY[dP][Ac6c]))",0.28 ± 0.26
3,"C[C@@H]1NC(=O)[C@H](Cc2ccc(O)cc2)NC(=O)[C@H](CCC(N)=O)NC(=O)[C@H](Cc2ccc(N)cc2)NC(=O)[C@H](Cc2ccccc2)NC(=O)C2(CCCCC2)NC(=O)[C@H]2CCCN2C(=O)[C@H](Cc2ccc(O)cc2)NC(=O)[C@H](CCC(=O)O)NC(=O)[C@H](Cc2c[nH]c3ccccc23)NC1=O [compound 3, cyclo(-Phe-Phe(4NH2)-Gln-Tyr-Ala-Trp-Glu-Tyr-^DPro-Chx-)] (cyclo(F[Phe(4-NH2)]QYAWEY[dP][Ac6c]))",0.18 ± 0.18
4,"C[C@@H]1NC(=O)[C@H](Cc2ccc(O)cc2)NC(=O)[C@H](CCC(N)=O)NC(=O)[C@H](Cc2ccc(Oc3ccccc3)cc2)NC(=O)[C@H](Cc2ccccc2)NC(=O)C2(CCCCC2)NC(=O)[C@H]2CCCN2C(=O)[C@H](CCCNC(=N)N)NC(=O)[C@H](CCC(=O)O)NC(=O)[C@H](Cc2c[nH]c3ccccc23)NC1=O [compound 6, cyclo(-Phe-Tyr(Ph)-Gln-Tyr-Ala-Trp-Glu-Arg-^DPro-Chx-)] (cyclo(F[Tyr(Ph)]QYAWER[dP][Ac6c]))",0.19 ± 0.12
5,"COc1ccc(C[C@@H]2NC(=O)[C@H](CCC(=O)O)NC(=O)[C@H](Cc3c[nH]c4ccccc34)NC(=O)[C@H](C)NC(=O)[C@H](Cc3ccc(O)cc3)NC(=O)[C@H](CCC(N)=O)NC(=O)[C@H](Cc3c[nH]c4ccccc34)NC(=O)[C@H](Cc3ccccc3)NC(=O)C3(CCCCC3)NC(=O)[C@H]3CCCN3C2=O)cc1 [compound 9, cyclo(-Phe-Trp-Gln-Tyr-Ala-Trp-Glu-Tyr(Me)-^DPro-Chx-)] (cyclo(FWQYAWEY(Me)[dP][Ac6c]))",0.8 ± 0.69
6,"C[C@@H]1NC(=O)[C@H](Cc2ccc(O)cc2)NC(=O)[C@H](CCC(N)=O)NC(=O)[C@H](Cc2ccccc2)NC(=O)[C@H](Cc2ccccc2)NC(=O)C2(CCCCC2)NC(=O)[C@H]2CCCN2C(=O)[C@H](CCCNC(=N)N)NC(=O)[C@H](CCC(=O)O)NC(=O)[C@H](Cc2c[nH]c3ccccc23)NC1=O [compound 10, cyclo(-Phe-Phe-Gln-Tyr-Ala-Trp-Glu-Arg-^DPro-Chx-)] (cyclo(FFQYAWER[dP][Ac6c]))",0.39 ± 0.23
7,"C[C@@H]1NC(=O)[C@H](Cc2ccc(O)cc2)NC(=O)[C@H](CCC(N)=O)NC(=O)[C@H](Cc2ccc(Oc3ccccc3)cc2)NC(=O)[C@H](Cc2ccccc2)NC(=O)C(C)(C)NC(=O)[C@H]2CCCN2C(=O)[C@H](CCCNC(=N)N)NC(=O)[C@H](CCC(=O)O)NC(=O)[C@H](Cc2c[nH]c3ccccc23)NC1=O [compound 11, cyclo(-Phe-Tyr(Ph)-Gln-Tyr-Ala-Trp-Glu-Arg-^DPro-Aib-)] (cyclo(F[Tyr(Ph)]QYAWER[dP][Aib]))",0.54 ± 0.43
